Test system: omental vessels of the rat
Assay: Vascular leakage after intravenous bolus of marinobufagenin (FIG. 1), fluorescein-tagged albumin videomicroscopy
Assay type: in vivo
Conditions: bolus of 200 nM marinobufagenin injected intravenously, time increments vs control (Con)
Experimental: FIG. 1 illustrates increasing vascular leakage at time increments from 5 seconds to 50 seconds with Con being the control group.
A bolus of 200 nM marinobufagenin was injected intravenously.
In the experimental procedure, single venules were visualized by way of a videomicroscopic technique, which permits viewing blood flow directly. The rats were injected with albumin that had been tagged with fluorescein dye. The distribution of the albumin in the omental vessels of the rat was then observed with a computer being employed to repeatedly measure the dye in the blood vessel and in the interstitium next to the blood vessel, as well as a remote site, which would serve as the control.

With C[C@]12CC[C@H](O)C[C@@]1(O)CC[C@@H]1[C@@H]2CC[C@]2(C)[C@@H](c3ccc(=O)oc3)C[C@H]3O[C@]132 [marinobufagenin] the “vascular leakage (dye monitored within the extravascular space)” value was “progressive, large leakage”.

From patent US20080299602A1, “Methods of Employing Vascular Leakage to Diagnose a Capillary Leak Disorder” (priority 2007, published 2008)
